According to patent US20230278972A1, “SUBSTITUTED HALOALKYL SULFONANILIDE HERBICIDES” (FMC Corporation, priority 2020, published 2023):

Columns and labels:
Assay type in all cases: in vivo
[1] = test system: Foxtail, Giant (giant foxtail, Setaria faberi); assay: Test A postemergence, Foxtail, Giant; conditions: Postemergence, 0 to 100 scale (0 no effect, 100 complete control)
Summary of the method: (§1)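 Whole-plant herbicidal screen in pots of loam blended with sand. Sprays used a surfactant-containing, non-phytotoxic solvent vehicle. Timing was preemergence soil-directed at planting or postemergence at the one- to two-leaf stage (2–10 cm).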

[2] = test system: blackgrass (Alopecurus myosuroides); assay: Test A postemergence, blackgrass; conditions: Postemergence, 0 to 100 scale (0 no effect, 100 complete control)
Summary of the method: as §1

[3] = test system: kochia (Bassia scoparia); assay: Test A preemergence, kochia; conditions: Preemergence; for Plant response rating, Kochia: 125 g ai/ha, visual injury, 0 to 100 scale (0 no effect, 100 complete control), approx. 10 days; for Kochia plant response rating: 500 g ai/ha, visual injury on 0 to 100 scale (0 no effect, 100 complete control), approximately 10 days
Summary of the method: as §1

[4] = test system: galium (catchweed bedstraw, Galium aparine); assay: Test A postemergence, galium; conditions: Postemergence, 0 to 100 scale (0 no effect, 100 complete control)
Summary of the method: (§2)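 Postemergence ratings come from foliar sprays onto one- to two-leaf plants of 2 to 10 cm grown in loam/sand; preemergence ratings come from a directed spray onto the soil of newly seeded pots. Formulation was a surfactant-containing non-phytotoxic solvent blend.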

[5] = test system: Foxtail, Giant (giant foxtail, Setaria faberi); assay: Test A preemergence, Foxtail, Giant; conditions: Preemergence; for Plant response rating, Foxtail, Giant: 125 g ai/ha, visual injury, 0 to 100 scale (0 no effect, 100 complete control), approx. 10 days; for Foxtail, Giant plant response rating: 500 g ai/ha, visual injury on 0 to 100 scale (0 no effect, 100 complete control), approximately 10 days
Summary of the method: as §1

[6] = test system: corn (Zea mays); assay: Test A postemergence, corn; conditions: Postemergence, 0 to 100 scale (0 no effect, 100 complete control)
Summary of the method: as §1

[7] = test system: ragweed (common ragweed, Ambrosia artemisiifolia); assay: Test A preemergence, ragweed; conditions: Preemergence; for Plant response rating, Ragweed: 125 g ai/ha, visual injury, 0 to 100 scale (0 no effect, 100 complete control), approx. 10 days; for Ragweed plant response rating: 500 g ai/ha, visual injury on 0 to 100 scale (0 no effect, 100 complete control), approximately 10 days
Summary of the method: as §1

[8] = test system: Ryegrass, Italian (Italian ryegrass, Lolium multiflorum); assay: Test A postemergence, Ryegrass, Italian; conditions: Postemergence, 0 to 100 scale (0 no effect, 100 complete control)
Summary of the method: as §1

[9] = test system: barnyardgrass (Echinochloa crus-galli); assay: Test A preemergence, barnyardgrass; conditions: Preemergence; for Plant response rating, Barnyardgrass: 125 g ai/ha, visual injury, 0 to 100 scale (0 no effect, 100 complete control), approx. 10 days; for Barnyardgrass plant response rating: 500 g ai/ha, visual injury on 0 to 100 scale (0 no effect, 100 complete control), approximately 10 days
Summary of the method: as §1

[10] = test system: pigweed (Amaranthus retroflexus); assay: Test A postemergence, pigweed; conditions: Postemergence, 0 to 100 scale (0 no effect, 100 complete control)
Summary of the method: as §1

[11] = test system: ragweed (common ragweed, Ambrosia artemisiifolia); assay: Test A postemergence, ragweed; conditions: Postemergence, 0 to 100 scale (0 no effect, 100 complete control)
Summary of the method: as §1

[12] = test system: kochia (Bassia scoparia); assay: Test A postemergence, kochia; conditions: Postemergence, 0 to 100 scale (0 no effect, 100 complete control)
Summary of the method: as §1

[13] = test system: Ryegrass, Italian (Italian ryegrass, Lolium multiflorum); assay: Test A preemergence, Ryegrass, Italian; conditions: Preemergence; for Plant response rating, Ryegrass, Italian: 125 g ai/ha, visual injury, 0 to 100 scale (0 no effect, 100 complete control), approx. 10 days; for Ryegrass, Italian plant response rating: 500 g ai/ha, visual injury on 0 to 100 scale (0 no effect, 100 complete control), approximately 10 days
Summary of the method: as §1

[14] = test system: wheat (Triticum aestivum); assay: Test A postemergence, wheat; conditions: Postemergence, 0 to 100 scale (0 no effect, 100 complete control)
Summary of the method: as §2

[15] = test system: barnyardgrass (Echinochloa crus-galli); assay: Test A postemergence, barnyardgrass; conditions: Postemergence, 0 to 100 scale (0 no effect, 100 complete control)
Summary of the method: as §2

[16] = test system: pigweed (Amaranthus retroflexus); assay: Test A preemergence, pigweed; conditions: for Plant response rating, Pigweed: 125 g ai/ha, visual injury, 0 to 100 scale (0 no effect, 100 complete control), approx. 10 days; for Pigweed plant response rating: 500 g ai/ha, visual injury on 0 to 100 scale (0 no effect, 100 complete control), approximately 10 days
Summary of the method: as §2

[17] = 500 g ai/ha, visual injury approx. 10 days

Compound | Plant response rating, Foxtail, Giant ([1]; 125 g ai/ha) | Plant response rating, Foxtail, Giant [1, 17] | Plant response rating, Blackgrass ([2]; 125 g ai/ha) | Plant response rating, Blackgrass [2, 17] | Plant response rating, Kochia [3] | Kochia plant response rating [3] | Plant response rating, Galium ([4]; 125 g ai/ha) | Plant response rating, Galium [4, 17] | Plant response rating, Foxtail, Giant [5] | Foxtail, Giant plant response rating [5] | Plant response rating, Corn ([6]; 125 g ai/ha) | Plant response rating, Corn [6, 17] | Plant response rating, Ragweed [7] | Ragweed plant response rating [7] | Plant response rating, Ryegrass, Italian ([8]; 125 g ai/ha) | Plant response rating, Ryegrass, Italian [8, 17] | Plant response rating, Barnyardgrass [9] | Barnyardgrass plant response rating [9] | Plant response rating, Pigweed ([10]; 125 g ai/ha) | Plant response rating, Pigweed [10, 17] | further results
Cc1cc(Cl)c(C(=O)N2CCOCC2)cc1N(S(=O)(=O)C(F)(F)F)S(=O)(=O)C(F)(F)F [Compound 250] | 0 | 10 | 0 | 50 | 80 | 100 | 50 | 80 | 90 | 100 | 0 | 30 | 80 | 90 | 0 | 20 | 40 | 90 | 80 | 90 | Plant response rating, Ragweed ([11]; 125 g ai/ha): 80; Plant response rating, Ragweed [11, 17]: 90; Plant response rating, Kochia ([12]; 125 g ai/ha): 70; Plant response rating, Kochia [12, 17]: 90; Plant response rating, Ryegrass, Italian [13]: 60; Ryegrass, Italian plant response rating [13]: 90; Plant response rating, Wheat ([14]; 125 g ai/ha): 20; Plant response rating, Wheat [14, 17]: 30; Plant response rating, Barnyardgrass ([15]; 125 g ai/ha): 20; Plant response rating, Barnyardgrass [15, 17]: 40; Plant response rating, Pigweed [16]: 100; Pigweed plant response rating [16]: 100
Cc1cc(Cl)c(C(=O)N(C)C)cc1NS(=O)(=O)C(F)(F)F [Compound 251] | 10 | 80 | 20 | 60 | 90 | 90 | 80 | 80 | 50 | 90 | 0 | 30 | 80 | 80 | 30 | 80 | 20 | 90 | 80 | 80 | Plant response rating, Ragweed ([11]; 125 g ai/ha): 70; Plant response rating, Ragweed [11, 17]: 80; Plant response rating, Kochia ([12]; 125 g ai/ha): 40; Plant response rating, Kochia [12, 17]: 60; Plant response rating, Ryegrass, Italian [13]: 90; Ryegrass, Italian plant response rating [13]: 100; Plant response rating, Wheat ([14]; 125 g ai/ha): 40; Plant response rating, Wheat [14, 17]: 70; Plant response rating, Barnyardgrass ([15]; 125 g ai/ha): 70; Plant response rating, Barnyardgrass [15, 17]: 70; Plant response rating, Pigweed [16]: 100; Pigweed plant response rating [16]: 100
